# In patent publication US7354941B2, “Nicotinamide benzofused-heterocyclyl derivatives useful as selective inhibitors of PDE4 isozymes” (Pfizer Products Inc., priority 2000, dated 2008):
# Columns and labels:
# [1] = in vivo; cited from earlier work
# [2] = system: patients suffering from septic shock; conditions: 1 mg/kg/hr, after 24 hours; cited from earlier work
# [3] = system: lipopolysaccharide-induced bowel erythrocyte extravasation; conditions: pretreatment i.p. 3×, rats; cited from earlier work
# [4] = system: isolated pulmonary artery rings; conditions: rings from normal rats and rats with hypoxia-induced pulmonary hypertension; cited from earlier work
# [5] = system: Patients with severe COPD; conditions: cited from earlier work; for mean pulmonary artery pressure: oral administration, severe COPD
# [6] = system: PDE4; conditions: cited from earlier work
# [7] = system: guinea-pig trachea; conditions: cited from earlier work
# [8] = system: high-affinity rolipram binding site (Sr); conditions: cited from earlier work
# [9] = system: patients with COPD; conditions: cited from earlier work
# [10] = system: patients; conditions: orally 5, 10, and 15 mg b.i.d., week 2; cited from earlier work
# [11] = system: human peripheral blood mononuclear cells (HPBM); conditions: normal patients and subjects with atopic dermatitis; cited from earlier work
# [12] = system: epidermal basal cells; conditions: primary culture; cited from earlier work
# [13] = system: endotoxin-induced acute renal failure; conditions: cited from earlier work
# [14] = system: psoriatic lesions; conditions: two double-blind studies versus vehicle; cited from earlier work
# [15] = system: psoriatic epidermal slices; conditions: cited from earlier work
# [16] = system: histamine-induced and antigen-induced bronchoconstriction; conditions: guinea-pig; cited from earlier work
# [17] = system: antigen-induced bronchospasm; conditions: rat; cited from earlier work
# [18] = system: colitis; conditions: rat; cited from earlier work
# [19] = system: antigen-induced bronchoconstriction; conditions: guinea-pig; cited from earlier work
# [20] = system: rhinorrhea; conditions: antigen-challenged pig; cited from earlier work
# [21] = system: TNF-α mRNA expression; conditions: collagen II treated mice; cited from earlier work
# [22] = system: streptococcal cell wall (SCW)-induced arthritis; conditions: in vivo; cited from earlier work
# [23] = system: rheumatoid arthritis patients; conditions: 35 patients, t.i.d., placebo-controlled; cited from earlier work
# [24] = system: antigen-induced lung eosinophilia; conditions: guinea-pig; cited from earlier work
# [25] = system: atopic dermatitis; conditions: topical, cited from earlier work
# [26] = system: allergic rhinitis; conditions: in vivo; cited from earlier work
# [27] = system: seratonin-induced bronchoconstriction; conditions: dog; cited from earlier work
structure (smiles),measurement,setting,value
"Nc1nc2c([nH]1)c(=O)n(CC1CC1)c(=O)n2CC1CC1 [BRL-61,063]",adverse events of nausea and vomiting,[1],adverse events of nausea and vomiting
CC(=O)CCCCn1c(=O)c2c(ncn2C)n(C)c1=O [pentoxifylline],IL-6 levels,[2],significantly increased
same,TNF-α levels,[2],significantly lowered
same,lipopolysaccharide-induced bowel erythrocyte extravasation,[3],reduces lipopolysaccharide-induced bowel erythrocyte extravasation
"CC(=O)c1ccc(CNC(=O)c2cccnc2Oc2ccc3nonc3c2)cc1 [Example 7, N-[4-Acetyl-benzyl]-2-[benzo[2,1,3]oxadiazol-5-yloxy]-nicotinamide]",melting point,,154 to 156 °C
"CC(O)c1ccc(CNC(=O)c2cccnc2Oc2ccc3nonc3c2)s1 (racemic) [Example 6, (±)-2-[Benzo[2,1,3]oxadiazol-5-yloxy]-N-[5-[1-hydroxy-ethyl]-thiophen-2-ylmethyl]-nicotinamide]",melting point,,81 to 83 °C
Cc1[nH]c(=O)c(C#N)cc1-c1ccncc1 [milrinone],relaxant activities of isoproterenol and forskolin,[4],same effect has been observed
same,mean pulmonary artery pressure,[5],decreases in mean pulmonary artery pressure
O=S1(=O)CCN(c2nc(NC3CC3)nc(C3CC3)n2)C1 [(0.0.56)],IC50,[6],0.15 µM
same,"relaxant activity, guinea-pig trachea model",[7],potent relaxant agents
"O=C(NCc1ccc(C(O)C(F)(F)F)cc1)c1cccnc1Oc1ccc2nonc2c1 (racemic) [Example 5, (±)-2-[Benzo[2,1,3]oxadiazol-5-yloxy]-N-[4-[2,2,2-trifluoro-1-hydroxy-ethyl]-benzyl]-nicotinamide]",melting point,,164 to 166 °C
CC1CC1c1nc(NC2CC2)nc(N2CCOCC2)n1 (stereo not shown) [(0.0.57)],IC50,[6],0.14 µM
same,"relaxant activity, guinea-pig trachea model",[7],potent relaxant agents
"CC(NC(=O)c1cccnc1Oc1ccc2nonc2c1)c1ccc(C(C)(C)O)cc1 (racemic) [Example 17, (±)-2-(Benzo[2,1,3]oxadiazol-5-yloxy)-N-{1-[4-(1-hydroxy-1-methyl-ethyl)-phenyl]ethyl}-nicotinamide]",melting point,,116 to 117 °C
"COc1ccc([C@]2(C#N)CC[C@@H](C(=O)O)CC2)cc1OC1CCCC1 [SB-207,499]",affinity at the Sr,[8],comparatively low affinity at the Sr
same,improvement in trough FEV1,"[9]; 15 mg b.i.d., week 6",11%
same,maximum mean difference in trough FEV1 compared with placebo,"[9]; 15 mg b.i.d., week 6",160 mL
same,FEV1 and forced vital capacity (FVC),[9]; 15 mg twice a day for six weeks,increrases in FEV1 and forced vital capacity (FVC)
same,FEV1,[9]; four week trial,evidence of improved FEV1
same,trough FEV1 from placebo,[10],significant increases
CSc1ccc(C(=O)c2[nH]c(=O)[nH]c2C)cc1 [enoximone],mean pulmonary artery pressure,[5],decreases in mean pulmonary artery pressure
same,airway resistance,[5]; patients hospitalized with decompensated COPD,reduce airway resistance
COc1ccc(CC2CNC(=O)N2)cc1OC1CCCC1 (stereo not shown) [Ro 20-1724],inhibition of the proliferation of HPBM,[11],concentration-related inhibition
same,cAMP concentrations,[12],three-fold increase
same,survival rates,[13]; endotoxin-treated rats,improve survival rates
same,"renal vascular resistance, renal blood flow and glomerular filtration rate",[13]; post-treatment at 10 μg/kg/min,markedly attenuates endotoxin-induced increases in renal vascular resistance and decreases in renal blood flow and glomerular filtration rate
same,urinary cAMP excretion,[13]; post-treatment at 10 μg/kg/min,significantly increases urinary cAMP excretion
same,psoriatic lesions and adverse effects,[14],improve psoriatic lesions without adverse systemic or cutaneous effects
same,increase in cAMP concentration,[15]; keratomed psoriatic epidermis,1395%
same,cAMP concentrations over controls,[15]; psoriatic epidermal slices and keratomed psoriatic epidermal slices,very marked elevation of cAMP concentrations over controls
"CC(C)(O)c1ccc(CNC(=O)c2cccnc2Oc2ccc3nonc3c2)c(Cl)c1 [Example 9, 2-(Benzo[2,1,3]oxadiazol-5-yloxy)-N-[2-chloro-4-(1-hydroxy-1-methyl-ethyl)-benzyl]-nicotinamide]",melting point,,171 to 173 °C
O=c1c2[nH]cnc2c2cccnc2n1-c1ccccc1 [KF17625],"inhibition of histamine- and antigen-induced bronchoconstriction, PAF- and antigen-induced eosinophilia, AHR, bronchospasm, anaphylactic bronchoconstriction",[16],activity
COc1ccc(CNc2c(C)noc2C)cc1OC1CCCC1 [RPR-132294],inhibition of antigen-induced bronchospasm,[17],activity in the inhibition of antigen-induced bronchospasm
CCCn1c(=O)c2[nH]cnc2n(-c2ccc(Cl)cc2)c1=O [LAS-31025],effects in dextran sulfate induced colitis model,[18],beneficial effects comparable to prednisolone
same,effects in models of colitis,[18],beneficial effects
same,inhibition of antigen-induced bronchoconstriction,[19],active
CCCn1c(=O)c2c(C)nc(CC)n2c2nc(OC)ccc21 [Example D-22888],anti-allergic effect and rhinorrhea,[20],exhibit a strong anti-allergic affect and to inhibit rhinorrhea
"COc1ccc(C(=O)Nc2c(Cl)cncc2Cl)cc1OC1CCCC1 [RP-73,401]",TNF-α mRNA expression at the pannus/cartilage interface of paw joints,[21],decrease TNF-α mRNA expression
same,emesis,[1],elicit emesis
same,affinity at the Sr,[8],high affinity at the Sr
same,"disease: joint destruction, synovitis, and fibrosis",[22],significant amelioration of disease
same,clinical improvement,[23],positive trend towards clinical improvement
same,"inhibition of antigen-induced lung, BAL and airway eosinophilia, EPO, PAF- and ozone-induced AHR, IL-5 induced pleural eosinophila",[24],active
COc1ccc(-c2nc3cnccc3o2)c2c1OC1(CCCC1)C2 [(0.0.48)],IC50,[6],0.0025 µM
O=c1c2c(ncn2Cc2cccnc2)c2cccnc2n1-c1ccccc1 [KF19514],"inhibition of histamine- and antigen-induced bronchoconstriction, PAF- and antigen-induced eosinophilia, AHR, bronchospasm, anaphylactic bronchoconstriction",[16],activity
"CC(C)(O)c1ccc(CNC(=O)c2cccnc2Oc2ccc3nonc3c2)c(F)c1 [Example 2, 2-[Benzo[2,1,3]oxadiazol-5-yloxy]-N-[2-fluoro-4-[1-hydroxy-1-methyl-ethyl]-benzyl]-nicotinamide]",melting point,,160 to 161 °C
"O=c1c2cccnc2n(-c2cccc([N+](=O)[O-])c2)c(=O)n1Cc1ccncc1 [RS-23,544]",emesis,[1],elicit emesis
same,affinity at the Sr,[8],high affinity at the Sr
"COc1ccc(C2CNC(=O)NC2)cc1O[C@H]1C[C@@H]2CC[C@H]1C2 [CP-80,633]",inflammatory parameters,"[25]; bilaterally over eight days, twenty patients",effectively inhibit all of the inflammatory parameters tested
same,adverse effects,[25]; eight days,no adverse effects
same,emesis,[1],elicit emesis
same,affinity at the Sr,[8],high affinity at the Sr
"O=C(Nc1c(Cl)cncc1Cl)C(=O)c1cn(Cc2ccc(F)cc2)c2ccc(O)cc12 [AWD-12,281]",activity in a rat model of allergic rhinitis,[26],active
COc1ccc(/C(C)=N/OC(N)=O)cc1OC1CCCC1 [WAY-PDA-641],inhibition of seratonin-induced bronchoconstriction,[27],active
"CC(NC(=O)c1cccnc1Oc1ccc2nonc2c1)c1ccc(C(C)(C)O)cc1F (racemic) [Example 8, (±)-2-(Benzo[2,1,3]oxadiazol-5-yloxy)-N-{1-[2-fluoro-4-(1-hydroxy-1-methyl-ethyl)-phenyl]-ethyl}-nicotinamide]",melting point,,128 to 130 °C
